Measurements as given in paper PMC11509018, “Evaluation of the Role of Tanshinone I in an In Vitro System of Charcot-Marie-Tooth Disease Type 2N” (International Journal of Molecular Sciences, 2024).

Target: T1, AlaRS R329H binding to GST-Nrp1 b1 (Homo sapiens, UniProt P49588, R329H)
T1 construct: made in house; host or cells: E. coli BL21 (DE3), pET-21a for AlaRS
T1 sequence (P49588 1-968 R329H): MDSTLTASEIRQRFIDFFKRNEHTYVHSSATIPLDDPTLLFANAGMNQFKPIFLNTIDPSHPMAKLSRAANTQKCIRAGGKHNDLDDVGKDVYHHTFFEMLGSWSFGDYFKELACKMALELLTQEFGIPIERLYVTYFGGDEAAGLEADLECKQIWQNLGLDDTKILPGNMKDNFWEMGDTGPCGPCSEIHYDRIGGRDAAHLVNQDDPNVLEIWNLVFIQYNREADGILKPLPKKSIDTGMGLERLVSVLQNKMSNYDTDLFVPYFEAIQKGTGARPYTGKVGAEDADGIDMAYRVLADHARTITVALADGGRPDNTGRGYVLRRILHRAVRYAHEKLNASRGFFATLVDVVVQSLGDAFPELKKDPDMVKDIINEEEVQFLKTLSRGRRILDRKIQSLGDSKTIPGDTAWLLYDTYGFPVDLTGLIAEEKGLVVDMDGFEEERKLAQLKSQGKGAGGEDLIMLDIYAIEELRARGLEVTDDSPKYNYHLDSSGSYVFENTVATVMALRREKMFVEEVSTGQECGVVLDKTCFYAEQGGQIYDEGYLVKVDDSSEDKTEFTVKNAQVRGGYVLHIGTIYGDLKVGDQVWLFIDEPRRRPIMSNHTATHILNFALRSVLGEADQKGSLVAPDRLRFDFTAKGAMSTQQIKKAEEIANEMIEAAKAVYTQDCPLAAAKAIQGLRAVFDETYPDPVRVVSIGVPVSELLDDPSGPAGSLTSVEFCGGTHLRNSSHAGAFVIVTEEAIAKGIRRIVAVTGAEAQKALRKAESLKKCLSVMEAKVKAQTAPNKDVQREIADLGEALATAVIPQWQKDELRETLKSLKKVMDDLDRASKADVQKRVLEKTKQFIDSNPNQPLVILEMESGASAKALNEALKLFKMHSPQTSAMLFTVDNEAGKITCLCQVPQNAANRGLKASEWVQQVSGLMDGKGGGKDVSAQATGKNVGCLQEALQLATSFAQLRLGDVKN
Test: GST pull down assay
Conditions: 20 µM Tanshinone I, ImageJ, average of three repeats
Experimental: To further investigate whether Tanshinone I-induced conformational changes in AlaRS CMT mutants affect their interaction with Nrp1, Co-IP experiments were performed in cells treated with Tanshinone I. By comparing Co-IP results obtained before and after treatment, we assessed the influence of the drug on the binding strength and mode between the AlaRS CMT mutants and Nrp1. […] To confirm the direct effect of Tanshinone I on the interaction between AlaRS CMT mutants and Nrp1, pull-down experiments were performed. […] Given that the interaction between AlaRS mutants and Nrp1 is associated with disease progression in CMT, the ability of Tanshinone I to disrupt this binding highlights its potential to intervene in the pathogenic mechanisms of these diseases.
Figure 7 The impact of Tanshinone I on the interaction between AlaRS mutants and Nrp1. (A) Co-IP assays were conducted to assess the binding between HA-AlaRS mutants and Nrp1, both with and without treatment with 20 µM Tanshinone I for 24 h. […] (C) Pull down assay was performed to detect the binding between AlaRS mutants and GST-Nrp1 b1 with or without 20 µM Tanshinone I. (D) Relative quantification statistics of the AlaRS mutants pulled down from the GST pull down experiments after Tanshinone I treatment were performed using ImageJ. (E) The cell viability of 293T and NSC34 cells treated with different concentrations of Tanshinone I was assessed using the CCK-8 assay over a 24 h period. TEXT PRINTED IN THE PICTURE: (B) Tanshinone I: Mean density band (N71Y): 0.60; Mean density band (G102R): 0.53; Mean density band (R326W): 0.50; Mean density band (R329H): 0.50; Mean density band (E337K): 0.62 | (D) Tanshinone I: Mean density band (N71Y): 0.82; Mean density band (G102R): 0.76; Mean density band (R326W): 0.84; Mean density band (R329H): 0.84; Mean density band (E337K): 0.90
To detect the direct interactions between the mutant proteins and Nrp1 in vitro, we performed a Glutathione S-transferase (GST) pull-down assay. AlaRS mutants fused with 6 × His were purified with Ni-NTA beads, followed by chromatography on a HiTrap Q HP column. Nrp1 b1 fragments fused with GST were purified with Glutathione Beads (#SA008100, Smart-Lifesciences, Changzhou, China). For GST pull-down assays, 1000 μg of each GST-fused Nrp1 b1 fragment was mixed with 200 μg of 6 × His-tagged fusion protein in binding buffer (50 mM Tris-HCl pH 7.5, 20 mM NaCl, 5% glycerol, 5 mM DTT with 0.1% BSA) at 4 °C overnight. The mixture was next incubated with 30 μL glutathione beads at 4 °C with constant rotation for 2–4 h. Subsequently, the bead/protein complex was washed three times, and eluted with 30 μL 2 × SDS sample buffer. The samples were then subjected to SDS-PAGE analysis. The experiment was repeated three times.

- Mean density band (R329H), relative quantification of AlaRS mutant pulled down: 0.84
SMILES: Cc1coc2c1C(=O)C(=O)c1c-2ccc2c(C)cccc12 [Tanshinone I]
